Assay results taken from PMC3375359 (Journal of Medicinal Chemistry, 2012).
Read-outs that look alike come from different tables or passages of the source.

Legend:
human MOR [1] = molecular target: T1, human MOR (Homo sapiens, UniProt P35372); details: Table 1; ratio of Ki values; cited from earlier work
human MOR [2] = molecular target: T1, human MOR; assay type: binding
human μ opioid receptor = human μ opioid receptor (Homo sapiens, UniProt P35372); experiment: [35S]GTPγS binding mediated by the mu opioid receptor; assay type: biochemical; details: [35S]GTPγS binding assay, in words
human KOR = human KOR (Homo sapiens, UniProt P41145); details: from binding affinities
human KOR, sequence (P41145 whole entry): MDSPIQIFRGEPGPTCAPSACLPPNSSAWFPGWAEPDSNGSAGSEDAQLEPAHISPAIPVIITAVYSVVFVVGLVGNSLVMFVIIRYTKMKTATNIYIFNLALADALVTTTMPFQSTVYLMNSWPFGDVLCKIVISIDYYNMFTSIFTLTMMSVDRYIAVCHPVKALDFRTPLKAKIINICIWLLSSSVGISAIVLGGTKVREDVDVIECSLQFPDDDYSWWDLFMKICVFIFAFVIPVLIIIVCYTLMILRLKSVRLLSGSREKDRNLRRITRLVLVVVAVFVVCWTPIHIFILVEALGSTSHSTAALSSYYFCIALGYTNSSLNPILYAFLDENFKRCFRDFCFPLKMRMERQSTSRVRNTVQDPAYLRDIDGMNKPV

T1 sequence (P35372 whole entry): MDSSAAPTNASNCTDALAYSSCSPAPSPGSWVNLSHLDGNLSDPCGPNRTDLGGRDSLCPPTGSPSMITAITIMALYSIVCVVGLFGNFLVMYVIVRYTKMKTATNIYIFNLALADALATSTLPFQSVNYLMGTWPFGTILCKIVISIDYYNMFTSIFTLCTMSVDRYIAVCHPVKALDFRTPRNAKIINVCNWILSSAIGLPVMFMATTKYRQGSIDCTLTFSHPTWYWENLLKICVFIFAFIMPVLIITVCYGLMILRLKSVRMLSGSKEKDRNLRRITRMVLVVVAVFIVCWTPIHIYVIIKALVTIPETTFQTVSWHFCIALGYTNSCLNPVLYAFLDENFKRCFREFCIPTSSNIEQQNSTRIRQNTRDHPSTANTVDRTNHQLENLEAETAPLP
human μ opioid receptor, sequence (P35372 whole entry): as above

Structure (SMILES)	Selectivity MOR/KOR/DOR (human MOR [2])	Selectivity MOR/KOR/DOR (human MOR [2]; Table 1, ratio of Ki values)	further results
CN1CC[C@]23CCCC[C@H]2[C@H]1Cc1ccc(N)cc13 [Compound 2a]	–	–	Selectivity MOR/KOR/DOR (human MOR [1]): 1/14/190
Nc1ccc2c(c1)[C@@]13CCCC[C@H]1[C@@H](C2)N(CC1CCC1)CC3 [Compound 2b]	–	–	Selectivity MOR/KOR/DOR (human MOR [1]): 2/1/100
Nc1ccc2c(c1)[C@@]13CCCC[C@H]1[C@@H](C2)N(CC1CC1)CC3 [Compound 2c]	7/1/830	–	–
COc1ccccc1CNc1ccc2c(c1)[C@@]13CCCC[C@H]1[C@@H](C2)N(CC1CCC1)CC3 [Compound 3a, (−)-17-(cyclobutylmethyl)-N-(2-methoxybenzyl)-morphinan-3-amine]	1/1/28	–	–
COc1cccc(CNc2ccc3c(c2)[C@@]24CCCC[C@H]2[C@@H](C3)N(CC2CCC2)CC4)c1 [Compound 3b, (−)-17-(cyclobutylmethyl)-N-(3-methoxybenzyl)-morphinan-3-amine]	1/5/220	–	–
COc1ccc(CNc2ccc3c(c2)[C@@]24CCCC[C@H]2[C@@H](C3)N(CC2CCC2)CC4)cc1 [Compound 3c, (−)-17-(cyclobutylmethyl)-N-(4-methoxybenzyl)-morphinan-3-amine]	–	1/5/300	–
Clc1ccc(CNc2ccc3c(c2)[C@@]24CCCC[C@H]2[C@@H](C3)N(CC2CCC2)CC4)cc1 [Compound 3d, (−)-17-(cyclobutylmethyl)-N-(4-chlorobenzyl)-morphinan-3-amine]	1/3/59	–	–
c1cc2c(cc1CNc1ccc3c(c1)[C@@]14CCCC[C@H]1[C@@H](C3)N(CC1CCC1)CC4)OCO2 [Compound 3e, (−)-17-(cyclobutylmethyl)-N-(3,4-methylenedioxybenzyl)morphinan-3-amine]	–	1/3/160	–
COc1ccccc1CNc1ccc2c(c1)[C@@]13CCCC[C@H]1[C@@H](C2)N(CC1CC1)CC3 [Compound 3f, (−)-17-(cyclopropylmethyl)-N-(2-methoxybenzyl)-morphinan-3-amine]	1/1/130	–	–
COc1cccc(CNc2ccc3c(c2)[C@@]24CCCC[C@H]2[C@@H](C3)N(CC2CC2)CC4)c1 [Compound 3g, (−)-17-(cyclopropylmethyl)-N-(3-methoxybenzyl)-morphinan-3-amine]	1/3/220	–	–
COc1ccc(CNc2ccc3c(c2)[C@@]24CCCC[C@H]2[C@@H](C3)N(CC2CC2)CC4)cc1 [Compound 3h, (−)-17-(cyclopropylmethyl)-N-(4-methoxybenzyl)-morphinan-3-amine]	–	1/2/65	–
c1cc2c(cc1CNc1ccc3c(c1)[C@@]14CCCC[C@H]1[C@@H](C3)N(CC1CC1)CC4)OCO2 [Compound 3i, (−)-17-(cyclopropylmethyl)-N-(3,4-methylenedihydroxybenzyl)-morphinan-3-amine]	–	1/3/120	–
O=[N+]([O-])c1cccc(CNc2ccc3c(c2)[C@@]24CCCC[C@H]2[C@@H](C3)N(CC2CCC2)CC4)c1 [Compound 3k, (−)-3-(3′-nitrobenzyl)amino-17-cyclobutylmethylmorphinan]	–	1/3/350	–
Oc1ccccc1CNc1ccc2c(c1)[C@@]13CCCC[C@H]1[C@@H](C2)N(CC1CCC1)CC3 [Compound 4a, (−)-17-(cyclobutylmethyl)-N-(2-hydroxybenzyl)-morphinan-3-amine]	1/1/65	–	–
Oc1cccc(CNc2ccc3c(c2)[C@@]24CCCC[C@H]2[C@@H](C3)N(CC2CCC2)CC4)c1 [Compound 4b, (−)-17-(cyclobutylmethyl)-N-(3-hydroxybenzyl)-morphinan-3-amine]	1/6/720	–	–
Oc1ccc(CNc2ccc3c(c2)[C@@]24CCCC[C@H]2[C@@H](C3)N(CC2CCC2)CC4)cc1 [Compound 4c, (−)-17-(cyclobutylmethyl)-N-(4-hydroxybenzyl)morphinan-3-amine]	–	1/7/340	–
Oc1ccccc1CNc1ccc2c(c1)[C@@]13CCCC[C@H]1[C@@H](C2)N(CC1CC1)CC3 [Compound 4d, (−)-17-(cyclopropylmethyl)-N-(2-hydroxybenzyl)morphinan-3-amine]	10/1/150	–	–
Oc1cccc(CNc2ccc3c(c2)[C@@]24CCCC[C@H]2[C@@H](C3)N(CC2CC2)CC4)c1 [Compound 4e, (−)-17-(cyclopropylmethyl)-N-(3-hydroxybenzyl)-morphinan-3-amine]	–	1/2/260	–
Oc1ccc(CNc2ccc3c(c2)[C@@]24CCCC[C@H]2[C@@H](C3)N(CC2CC2)CC4)cc1 [Compound 4f, (−)-17-(cyclopropylmethyl)-N-(4-hydroxybenzyl)-morphinan-3-amine]	–	1/1/44	–
CN1CC[C@]23CCCC[C@H]2[C@H]1Cc1ccc(NCc2cccc(O)c2)cc13 [Compound 4g]	–	1/24/1700	functional activity at MOR (agonist character) (human μ opioid receptor): full agonist; selectivity MOR to DOR (human MOR [2]; from binding affinities): ~2000 fold
COc1ccccc1CN(C)c1ccc2c(c1)[C@@]13CCCC[C@H]1[C@@H](C2)N(CC1CCC1)CC3 [Compound 5a, (−)-17-(cyclobutylmethyl)-N-methyl-N-(2-methoxybenzyl)-morphinan-3-amine]	1/1/14	–	–
COc1cccc(CN(C)c2ccc3c(c2)[C@@]24CCCC[C@H]2[C@@H](C3)N(CC2CCC2)CC4)c1 [Compound 5b]	1/2/27	–	–
COc1ccc(CN(C)c2ccc3c(c2)[C@@]24CCCC[C@H]2[C@@H](C3)N(CC2CCC2)CC4)cc1 [Compound 5c, (−)-17-(cyclobutylmethyl)-N-methyl-N-(4-methyloxybenzyl)-morphinan-3-amine]	–	1/1/34	–
CN(Cc1ccc(Cl)cc1)c1ccc2c(c1)[C@@]13CCCC[C@H]1[C@@H](C2)N(CC1CCC1)CC3 [Compound 5d, (−)-17-(cyclobutylmethyl)-N-methyl-N-(4-chlorobenzyl)-morphinan-3-amine]	–	1/1/28	–
CN(Cc1cccc(O)c1)c1ccc2c(c1)[C@@]13CCCC[C@H]1[C@@H](C2)N(CC1CCC1)CC3 [Compound 6b]	–	1/1/10	–
CN(Cc1ccc(O)cc1)c1ccc2c(c1)[C@@]13CCCC[C@H]1[C@@H](C2)N(CC1CCC1)CC3 [Compound 6c, (−)-17-(cyclobutylmethyl)-N-methyl-N-(4-hydroxybenzyl)-morphinan-3-amine]	–	1/1/170	–
c1ccc(CNc2ccc3c(c2)[C@@]24CCCC[C@H]2[C@@H](C3)N(CC2CC2)CC4)cc1 [Compound 8a, reference compound]	–	–	Selectivity MOR/KOR/DOR (human MOR [1]): 1/1/112
c1ccc(CNc2ccc3c(c2)[C@@]24CCCC[C@H]2[C@@H](C3)N(CC2CCC2)CC4)cc1 [Compound 8d, reference compound]	–	–	Selectivity MOR/KOR/DOR (human MOR [1]): 1/2/76
CN1CC[C@]23c4c5ccc(NCc6cccc(O)c6)c4O[C@H]2[C@@H](O)C=C[C@H]3[C@H]1C5 [Compound 12b, 3-(3′-hydroxybenzyl)amino-7,8-didehydro-4,5-epoxy-17-methyl-(5α,6α)-morphinan-6-ol]	–	–	functional activity at MOR (agonist character) (human μ opioid receptor): full agonists
Oc1cccc(CNc2ccc3c(c2)C[C@@H]2[C@@H]4CCCC[C@]34CCN2CC2CC2)c1 [Compound 17, 2-(3′-Hydroxybenzyl)amino-17-cyclopropylmethylmorphinan]	–	–	selectivity KOR over the DORs (human KOR): > 10,000 fold
